Each structure is given as a SMILES string. Activity calls are given as the source filed them. The calls are words filed in the database; no cut-off is given here.

Chain of Signal transducer and activator of transcription 3 (Homo sapiens) (P40763 whole entry): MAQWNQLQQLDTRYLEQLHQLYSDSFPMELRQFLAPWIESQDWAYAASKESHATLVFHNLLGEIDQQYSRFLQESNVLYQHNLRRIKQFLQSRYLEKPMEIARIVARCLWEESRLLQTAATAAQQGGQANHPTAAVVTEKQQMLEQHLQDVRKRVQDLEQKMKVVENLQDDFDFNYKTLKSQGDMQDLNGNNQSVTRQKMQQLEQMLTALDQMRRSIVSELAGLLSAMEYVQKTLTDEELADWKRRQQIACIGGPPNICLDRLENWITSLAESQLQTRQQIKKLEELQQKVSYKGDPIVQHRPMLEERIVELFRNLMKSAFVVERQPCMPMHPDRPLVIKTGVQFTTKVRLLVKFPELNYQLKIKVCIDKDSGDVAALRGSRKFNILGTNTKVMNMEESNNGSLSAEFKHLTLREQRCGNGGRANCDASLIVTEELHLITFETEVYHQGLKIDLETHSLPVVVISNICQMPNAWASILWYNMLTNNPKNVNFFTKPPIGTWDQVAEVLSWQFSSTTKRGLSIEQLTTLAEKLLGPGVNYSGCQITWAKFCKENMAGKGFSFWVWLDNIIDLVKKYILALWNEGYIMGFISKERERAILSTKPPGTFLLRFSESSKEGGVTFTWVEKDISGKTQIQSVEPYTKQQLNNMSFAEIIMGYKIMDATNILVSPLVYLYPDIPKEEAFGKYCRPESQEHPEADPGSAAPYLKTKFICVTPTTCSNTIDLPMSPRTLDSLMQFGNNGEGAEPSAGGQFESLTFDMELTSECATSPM

One series deals with MDA-MB-231. In words: Antiproliferative activity against human MDA-MB-231 cells assessed as cell viability incubated for 48 hrs measured after additional incubation with MTT. As to conditions: MDA-MB-231, 48 h. Format: functional, cell-based.
Consider `COC(=O)[C@H](Cc1ccc(O)cc1)N1CCc2c(oc3c2C(=O)C(=O)c2ccccc2-3)C1`, for which the IC50 stood at 7.26 µM.

In the case of `COC(=O)CN1CCc2c(oc3c2C(=O)C(=O)c2ccccc2-3)C1`, the IC50 is 2.5 µM.

As to `O=C1C(=O)c2c(oc3c2CCN(C(=O)c2cccs2)C3)-c2ccccc21`, the IC50 was above 20 µM.

Regarding `CN1CCN(C(=O)N2CCc3c(oc4c3C(=O)C(=O)c3ccccc3-4)C2)CC1`, the IC50 amounted to 6.08 µM.

Regarding `O=C1C(=O)c2c(oc3c2CCN(C(=O)c2ccco2)C3)-c2ccccc21`, the IC50 is 12.4 µM.

Consider `O=C1C(=O)c2c(oc3c2CCN(C(=O)c2cccc(C(F)(F)F)c2)C3)-c2ccccc21`, for which the half-maximal inhibitory concentration (IC50) amounted to 12.5 µM.

Regarding `COC(=O)[C@H](CC(C)C)N1CCc2c(oc3c2C(=O)C(=O)c2ccccc2-3)C1`, the IC50 is above 20 µM.

Turning to `CNC(=O)[C@H](Cc1ccccc1)N1CCc2c(oc3c2C(=O)C(=O)c2ccccc2-3)C1`, the IC50 is 8.12 µM.

Take `CNC(=O)CCCN1CCc2c(oc3c2C(=O)C(=O)c2ccccc2-3)C1`: the IC50 was 7.45 µM.

In the case of `O=C1C(=O)c2c(oc3c2CCN(C(=O)c2ccccc2)C3)-c2ccccc21`, the IC50 came to 5.71 µM.

As to `COc1ccc(C(=O)N2CCc3c(oc4c3C(=O)C(=O)c3ccccc3-4)C2)cc1`, the IC50 turned out to be 17.3 µM.

In the case of `C[C@H]1COC2=C1C(=O)C(=O)c1c2ccc2c1CCCC2(C)C` [CRYPTOTANSHINONE], the IC50 is above 20 µM.

As to `O=C1C(=O)c2c(oc3c2CCN(CCCO)C3)-c2ccccc21`, the IC50 came out at 2.3 µM.

`O=C1C(=O)c2c(oc3c2CCN(C(=O)c2ccc(Cl)cc2)C3)-c2ccccc21`: the IC50 is 13 µM.

Take `Cc1ccc(C(=O)N2CCc3c(oc4c3C(=O)C(=O)c3ccccc3-4)C2)cc1`: the IC50 came to 14.2 µM.

On to `O=C1C(=O)c2c(oc3c2CCN(C(=O)c2ccc(F)cc2)C3)-c2ccccc21`, for which the IC50 was determined as 10.9 µM.

Regarding `N#Cc1ccc(C(=O)N2CCc3c(oc4c3C(=O)C(=O)c3ccccc3-4)C2)cc1`, the IC50 came to 14.8 µM.

On to `CNC(=O)[C@H](C)N1CCc2c(oc3c2C(=O)C(=O)c2ccccc2-3)C1`, for which the IC50 amounted to 4.14 µM.

For the compound `CC(=O)N1CCc2c(oc3c2C(=O)C(=O)c2ccccc2-3)C1`, the IC50 was determined as 4.57 µM.

Take `CNC(=O)[C@H](Cc1ccc(O)cc1)N1CCc2c(oc3c2C(=O)C(=O)c2ccccc2-3)C1`: the IC50 was 7.26 µM.

The subject of a further series is MDA-MB-468. Description: Antiproliferative activity against human MDA-MB-468 cells assessed as cell viability incubated for 48 hrs measured after additional incubation with MTT. Format: functional, cell-based. As to conditions: MDA-MB-468, 48 h.
For the compound `COC(=O)[C@H](Cc1ccc(O)cc1)N1CCc2c(oc3c2C(=O)C(=O)c2ccccc2-3)C1`, the half-maximal inhibitory concentration (IC50) was found to be 14.3 µM.

Turning to `COC(=O)CN1CCc2c(oc3c2C(=O)C(=O)c2ccccc2-3)C1`, the IC50 worked out at 2.42 µM.

Turning to `O=C1C(=O)c2c(oc3c2CCN(C(=O)c2cccs2)C3)-c2ccccc21`, the IC50 is 12.9 µM.

As to `CN1CCN(C(=O)N2CCc3c(oc4c3C(=O)C(=O)c3ccccc3-4)C2)CC1`, the IC50 worked out at 5.84 µM.

For `O=C1C(=O)c2c(oc3c2CCN(C(=O)c2ccco2)C3)-c2ccccc21`, the IC50 was 12.9 µM.

For `O=C1C(=O)c2c(oc3c2CCN(C(=O)c2cccc(C(F)(F)F)c2)C3)-c2ccccc21`, the IC50 is above 20 µM.

Take `COC(=O)[C@H](CC(C)C)N1CCc2c(oc3c2C(=O)C(=O)c2ccccc2-3)C1`: the IC50 was above 20 µM.

Turning to `CNC(=O)[C@H](Cc1ccccc1)N1CCc2c(oc3c2C(=O)C(=O)c2ccccc2-3)C1`, the concentration for half-maximal inhibition (IC50) is 8.05 µM.

For `CNC(=O)CCCN1CCc2c(oc3c2C(=O)C(=O)c2ccccc2-3)C1`, the IC50 turned out to be 9.45 µM.

Regarding `O=C1C(=O)c2c(oc3c2CCN(C(=O)c2ccccc2)C3)-c2ccccc21`, the IC50 is 6.86 µM.

Take `COc1ccc(C(=O)N2CCc3c(oc4c3C(=O)C(=O)c3ccccc3-4)C2)cc1`: the IC50 was above 20 µM.

Regarding `C[C@H]1COC2=C1C(=O)C(=O)c1c2ccc2c1CCCC2(C)C` [CRYPTOTANSHINONE], the IC50 is above 20 µM.

For `O=C1C(=O)c2c(oc3c2CCN(CCCO)C3)-c2ccccc21`, the IC50 worked out at 2.32 µM.

With `O=C1C(=O)c2c(oc3c2CCN(C(=O)c2ccc(Cl)cc2)C3)-c2ccccc21`, the IC50 was 10.7 µM.

Regarding `Cc1ccc(C(=O)N2CCc3c(oc4c3C(=O)C(=O)c3ccccc3-4)C2)cc1`, the IC50 was 16.9 µM.

As for `O=C1C(=O)c2c(oc3c2CCN(C(=O)c2ccc(F)cc2)C3)-c2ccccc21`, the IC50 stood at 12 µM.

As for `N#Cc1ccc(C(=O)N2CCc3c(oc4c3C(=O)C(=O)c3ccccc3-4)C2)cc1`, the half-inhibitory concentration (IC50) was 12.6 µM.

In the case of `CNC(=O)[C@H](C)N1CCc2c(oc3c2C(=O)C(=O)c2ccccc2-3)C1`, the IC50 is 6.41 µM.

As for `CC(=O)N1CCc2c(oc3c2C(=O)C(=O)c2ccccc2-3)C1`, the IC50 stood at 3.89 µM.

On to `CNC(=O)[C@H](Cc1ccc(O)cc1)N1CCc2c(oc3c2C(=O)C(=O)c2ccccc2-3)C1`, for which the IC50 came to 10.4 µM.

Tested on in the next series: not listed separately
In words: Antiproliferative activity against human MCF-10A cells assessed as cell viability incubated for 48 hrs measured after additional incubation with MTT. Format: toxicity, cell-based.
Settings: not given
With `COC(=O)CN1CCc2c(oc3c2C(=O)C(=O)c2ccccc2-3)C1`, the IC50 at 48 h worked out at 4.89 µM.

For the compound `O=C1C(=O)c2c(oc3c2CCN(C(=O)c2ccccc2)C3)-c2ccccc21`, the IC50 at 48 h came out at 19.2 µM.

For `C[C@H]1COC2=C1C(=O)C(=O)c1c2ccc2c1CCCC2(C)C` [CRYPTOTANSHINONE], the half-maximal inhibitory concentration (IC50) at 48 h was above 20 µM.

Consider `O=C1C(=O)c2c(oc3c2CCN(CCCO)C3)-c2ccccc21`, for which the IC50 at 48 h was 11.1 µM.

Take `CNC(=O)[C@H](C)N1CCc2c(oc3c2C(=O)C(=O)c2ccccc2-3)C1`: the IC50 at 48 h was determined as 17.6 µM.

Consider `CC(=O)N1CCc2c(oc3c2C(=O)C(=O)c2ccccc2-3)C1`, for which the IC50 at 48 h stood at 17.8 µM.

In a further series the test system is L02. Description: Antiproliferative activity against human L02 cells assessed as cell viability incubated for 48 hrs measured after additional incubation with MTT. As to conditions: L02, 48 h. It counts as functional, cell-based.
On to `COC(=O)CN1CCc2c(oc3c2C(=O)C(=O)c2ccccc2-3)C1`, for which the IC50 was 5.46 µM.

`O=C1C(=O)c2c(oc3c2CCN(C(=O)c2ccccc2)C3)-c2ccccc21`: the IC50 was above 20 µM.

In the case of `C[C@H]1COC2=C1C(=O)C(=O)c1c2ccc2c1CCCC2(C)C` [CRYPTOTANSHINONE], the IC50 was above 20 µM.

On to `O=C1C(=O)c2c(oc3c2CCN(CCCO)C3)-c2ccccc21`, for which the IC50 amounted to 15.5 µM.

For the compound `CNC(=O)[C@H](C)N1CCc2c(oc3c2C(=O)C(=O)c2ccccc2-3)C1`, the IC50 is above 20 µM.

On to `CC(=O)N1CCc2c(oc3c2C(=O)C(=O)c2ccccc2-3)C1`, for which the IC50 stood at 16.6 µM.

Another series addresses Signal transducer and activator of transcription 3 (Homo sapiens) (UniProt P40763). In words: Suppression of STAT3 activation in human MDA-MB-231 cell assessed as decrease in phosphorylated STAT3 (p-STAT3 Tyr705) level at 3 uM measured after 24 hrs by Western blot analysis. Format: cell-based.
Settings: not given
For orientation: Immunoblotting shows a protein as a band on a membrane.
On to `O=C1C(=O)c2c(oc3c2CCN(CCCO)C3)-c2ccccc21`, for which the inhibition entry was “Active”.

Consider `CNC(=O)[C@H](C)N1CCc2c(oc3c2C(=O)C(=O)c2ccccc2-3)C1`, for which the inhibition entry is “Active”.

In the case of `CC(=O)N1CCc2c(oc3c2C(=O)C(=O)c2ccccc2-3)C1`, the inhibition entry is “Active”.

For the next series the target is unchanged. In words: Suppression of STAT3 activation in human MDA-MB-468 cell assessed as decrease in phosphorylated STAT3 (p-STAT3 Tyr705) level at 3 uM measured after 24 hrs by Western blot analysis. It counts as cell-based.
Settings: not given
As for `O=C1C(=O)c2c(oc3c2CCN(CCCO)C3)-c2ccccc21`, the inhibition result was “Active”.

On to `CNC(=O)[C@H](C)N1CCc2c(oc3c2C(=O)C(=O)c2ccccc2-3)C1`, for which the inhibition entry is “Active”.

Turning to `CC(=O)N1CCc2c(oc3c2C(=O)C(=O)c2ccccc2-3)C1`, the inhibition entry was “Active”.

For a further series, the system named is MDA-MB-231. Description: Decrease in STAT3 level in human MDA-MB-231 cell at 3 uM measured after 24 hrs by Western blot analysis. It counts as functional, cell-based.
Settings: not given
For `O=C1C(=O)c2c(oc3c2CCN(CCCO)C3)-c2ccccc21`, the outcome was Active.

As for `CNC(=O)[C@H](C)N1CCc2c(oc3c2C(=O)C(=O)c2ccccc2-3)C1`, the outcome was Active.

Another series relates to MDA-MB-468. In words: Decrease in STAT3 level in human MDA-MB-468 cell at 3 uM measured after 24 hrs by Western blot analysis. Format: functional, cell-based.
Settings: not given
Take `O=C1C(=O)c2c(oc3c2CCN(CCCO)C3)-c2ccccc21`: the result was Active.

As to `CNC(=O)[C@H](C)N1CCc2c(oc3c2C(=O)C(=O)c2ccccc2-3)C1`, the outcome was Active.

The term IC50 denotes the concentration at which inhibition is half-maximal.

The values above are taken from ChEMBL document CHEMBL5614424, “Natural Product-Inspired Discovery of Naphthoquinone-Furo-Piperidine Derivatives as Novel STAT3 Inhibitors for the Treatment of Triple-Negative Breast Cancer” (J Med Chem, 2024).
